US4119717A, “16-S-acyl derivatives of fusidic acid” (Leo Pharmaceutical Products Ltd. A/S Lovens Kemiske Fabrik, priority 1976, dated 1978)
In brackets after ≈: the same amount, converted by molar mass.

Experiments:
Experiment in all cases: Antibacterial activity, concentration required for 50% inhibition
Assay type in all cases: cell-based
[1] = tested on: Bacteroides fragilis Leo JA 2; details: LEOJA2
Description: (§1) Now, however, it has been found, that the compounds of the present invention both in vitro and in vivo show interesting antimicrobial and pharmacokinetic properties. Thereby the compounds of the invention can be used in the treatment of bacterial infections in humans and animals.

[2] = tested on: Staph.aureus Leo CC 178 A; details: Staphylococcus aureus, LEOCC178A
Description: as §1

[3] = tested on: Staph.aureus Leo CC 178 B; details: Staphylococcus aureus, LEOCC178B
Description: as §1

Strep.pyogenes Leo EC = details: Streptococcus pyogenes
Description: as §1

Strep.sp. Leo EG 2 = tested on: Strep.sp. Leo EG 2
Description: as §1

SMILES | IC50 [1] | IC50 [2] | IC50 [3] | IC50 (Strep.pyogenes Leo EC) | IC50 (Strep.sp. Leo EG 2)
CC(=O)S[C@H]1C[C@@]2(C)[C@@H](C[C@@H](O)[C@H]3[C@@]4(C)CC[C@@H](O)[C@@H](C)[C@@H]4CC[C@@]32C)/C1=C(\CCC=C(C)C)C(=O)O [Example 1, 16-Deacetoxy-16β-(acetylthio)fusidic acid] | 0.79 µg/mL (≈ 1.48 µM) | 6.3 µg/mL (≈ 11.8 µM) | 0.01 µg/mL (≈ 0.0188 µM) | 0.2 µg/mL (≈ 0.375 µM) | 0.2 µg/mL (≈ 0.375 µM)
CC(=O)S[C@H]1C[C@@]2(C)[C@@H](C[C@@H](O)[C@H]3[C@@]4(C)CC[C@@H](O)[C@@H](C)[C@@H]4CC[C@@]32C)/C1=C(\CCCC(C)C)C(=O)O [Example 3, 16-Deacetoxy-16β-acetylthio-24,25-dihydrofusidic acid] | 0.5 µg/mL (≈ 0.935 µM) | 3.2 µg/mL (≈ 5.98 µM) | 0.008 µg/mL (≈ 0.015 µM) | 0.16 µg/mL (≈ 0.299 µM) | 0.25 µg/mL (≈ 0.467 µM)
CC(C)CCC/C(C(=O)O)=C1/[C@@H](SC(=O)c2ccccc2)C[C@@]2(C)[C@H]1C[C@@H](O)[C@H]1[C@@]3(C)CC[C@@H](O)[C@@H](C)[C@@H]3CC[C@@]12C [Example 4, 16-Deacetoxy-16β-benzoylthio-24,25-dihydrofusidic acid] | 1.6 µg/mL (≈ 2.68 µM) | 1.6 µg/mL (≈ 2.68 µM) | 0.5 µg/mL (≈ 0.838 µM) | 0.2 µg/mL (≈ 0.335 µM) | 0.63 µg/mL (≈ 1.06 µM)
CC(=O)S[C@H]1C[C@@]2(C)[C@@H](CC(=O)[C@H]3[C@@]4(C)CC[C@@H](O)[C@@H](C)[C@@H]4CC[C@@]32C)/C1=C(\CCC=C(C)C)C(=O)O [Example 7, 11-keto-16-deacetoxy-16β-(acetylthio)fusidic acid] | 2 µg/mL (≈ 3.77 µM) | 20 µg/mL (≈ 37.7 µM) | 0.02 µg/mL (≈ 0.0377 µM) | 1 µg/mL (≈ 1.88 µM) | 2 µg/mL (≈ 3.77 µM)
CC(=O)S[C@H]1C[C@@]2(C)[C@@H](CC(=O)[C@H]3[C@@]4(C)CC[C@@H](O)[C@@H](C)[C@@H]4CC[C@@]32C)/C1=C(\CCCC(C)C)C(=O)O [Example 8] | 2 µg/mL (≈ 3.75 µM) | 16 µg/mL (≈ 30 µM) | 0.02 µg/mL (≈ 0.0375 µM) | 1 µg/mL (≈ 1.88 µM) | 2 µg/mL (≈ 3.75 µM)
CC(=O)S[C@H]1C[C@@]2(C)[C@@H](C[C@@H](O)[C@H]3[C@@]4(C)CC[C@H](Br)[C@@H](C)[C@@H]4CC[C@@]32C)/C1=C(\CCC=C(C)C)C(=O)O [Example 21, 3-Deoxy-3β-bromo-16-deacetoxy-16β-(acetylthio)fusidic acid] | 3.2 µg/mL (≈ 5.37 µM) | 4 µg/mL (≈ 6.71 µM) | 0.13 µg/mL (≈ 0.218 µM) | 0.32 µg/mL (≈ 0.537 µM) | 1 µg/mL (≈ 1.68 µM)
CC(=O)S[C@H]1C[C@@]2(C)[C@@H](C[C@@H](O)[C@H]3[C@@]4(C)CC[C@H](Br)[C@@H](C)[C@@H]4CC[C@@]32C)/C1=C(\CCCC(C)C)C(=O)O [Example 22, 3-deoxy-3β-bromo-16-deacetoxy-16β-acetylthio-24,25-dihydrofusidic acid] | 2 µg/mL (≈ 3.35 µM) | 1.6 µg/mL (≈ 2.68 µM) | 0.079 µg/mL (≈ 0.132 µM) | 0.79 µg/mL (≈ 1.32 µM) | 1.6 µg/mL (≈ 2.68 µM)
CC(=O)S[C@H]1C[C@@]2(C)[C@@H](C[C@@H](O)[C@H]3[C@@]4(C)CC[C@H](N=[N+]=[N-])[C@@H](C)[C@@H]4CC[C@@]32C)/C1=C(\CCCC(C)C)C(=O)O [Example 28] | 1.6 µg/mL (≈ 2.86 µM) | 2 µg/mL (≈ 3.57 µM) | 1.6 µg/mL (≈ 2.86 µM) | 0.63 µg/mL (≈ 1.13 µM) | 0.63 µg/mL (≈ 1.13 µM)
CC(=O)S[C@H]1C[C@@]2(C)[C@@H](C[C@@H](O)[C@H]3[C@@]4(C)CC[C@H](Cl)[C@@H](C)[C@@H]4CC[C@@]32C)/C1=C(\CCC=C(C)C)C(=O)O [Example 29] | 1.3 µg/mL (≈ 2.36 µM) | 2 µg/mL (≈ 3.63 µM) | 0.5 µg/mL (≈ 0.907 µM) | 0.63 µg/mL (≈ 1.14 µM) | 1.6 µg/mL (≈ 2.9 µM)
CC(=O)S[C@H]1C[C@@]2(C)[C@@H](C[C@@H](O)[C@H]3[C@@]4(C)CC[C@@H](N=[N+]=[N-])[C@@H](C)[C@@H]4CC[C@@]32C)/C1=C(\CCCC(C)C)C(=O)O [Example 36, 3-Deoxy-3α-azido-16-deacetoxy-16β-acetylthio-24,25-dihydrofusidic acid] | 5 µg/mL (≈ 8.93 µM) | 5 µg/mL (≈ 8.93 µM) | 0.063 µg/mL (≈ 0.113 µM) | 0.4 µg/mL (≈ 0.715 µM) | 2 µg/mL (≈ 3.57 µM)
CC(=O)O[C@H]1C[C@@]2(C)[C@@H](C[C@@H](O)[C@H]3[C@@]4(C)CC[C@@H](O)[C@@H](C)[C@@H]4CC[C@@]32C)/C1=C(\CCC=C(C)C)C(=O)O [Fusidic acid] | 1.6 µg/mL (≈ 3.1 µM) | 16 µg/mL (≈ 31 µM) | 0.025 µg/mL (≈ 0.0484 µM) | 0.63 µg/mL (≈ 1.22 µM) | 1.6 µg/mL (≈ 3.1 µM)
